Several values for one entry are separate records, joined by “and”; a condition that tells them apart may be missing. Equal entries are not always repeated. Where two headings read alike, the source gives them in different places.
How the values were obtained:
CFTR = CFTR (Homo sapiens, UniProt P13569); assay: Membrane Potential Dye, Enteroid Assay A; assay type: cell-based; conditions: for EC50: read-out: Ent. A EC50
In short: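 Enteroid cells were loaded with methyl oxonol membrane potential dye (plus CaCCinh-A01 and Chicago Sky Blue) for 25 min at room temperature. Chloride transport was started by switching to chloride-free gluconate stimulation solution, with fluorescence read for 15 min. Activity was expressed as % of a triple-combination CFTR modulator control (3 μM, 3 μM, 300 nM acute).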

[1] = from COC[C@@H](N)[C@H](Oc1cc(-c2c(C)cccc2C)nc(NS(=O)(=O)c2cccc(C(=O)O)c2)n1)c1ccc(C(C)(C)C)cc1, amide bond, 13-membered ring, HATU/DIEA, DMF, 162.0 mM, 0.5 h

CFTR, sequence (P13569 with tags, fused parts or gaps DEL508-508): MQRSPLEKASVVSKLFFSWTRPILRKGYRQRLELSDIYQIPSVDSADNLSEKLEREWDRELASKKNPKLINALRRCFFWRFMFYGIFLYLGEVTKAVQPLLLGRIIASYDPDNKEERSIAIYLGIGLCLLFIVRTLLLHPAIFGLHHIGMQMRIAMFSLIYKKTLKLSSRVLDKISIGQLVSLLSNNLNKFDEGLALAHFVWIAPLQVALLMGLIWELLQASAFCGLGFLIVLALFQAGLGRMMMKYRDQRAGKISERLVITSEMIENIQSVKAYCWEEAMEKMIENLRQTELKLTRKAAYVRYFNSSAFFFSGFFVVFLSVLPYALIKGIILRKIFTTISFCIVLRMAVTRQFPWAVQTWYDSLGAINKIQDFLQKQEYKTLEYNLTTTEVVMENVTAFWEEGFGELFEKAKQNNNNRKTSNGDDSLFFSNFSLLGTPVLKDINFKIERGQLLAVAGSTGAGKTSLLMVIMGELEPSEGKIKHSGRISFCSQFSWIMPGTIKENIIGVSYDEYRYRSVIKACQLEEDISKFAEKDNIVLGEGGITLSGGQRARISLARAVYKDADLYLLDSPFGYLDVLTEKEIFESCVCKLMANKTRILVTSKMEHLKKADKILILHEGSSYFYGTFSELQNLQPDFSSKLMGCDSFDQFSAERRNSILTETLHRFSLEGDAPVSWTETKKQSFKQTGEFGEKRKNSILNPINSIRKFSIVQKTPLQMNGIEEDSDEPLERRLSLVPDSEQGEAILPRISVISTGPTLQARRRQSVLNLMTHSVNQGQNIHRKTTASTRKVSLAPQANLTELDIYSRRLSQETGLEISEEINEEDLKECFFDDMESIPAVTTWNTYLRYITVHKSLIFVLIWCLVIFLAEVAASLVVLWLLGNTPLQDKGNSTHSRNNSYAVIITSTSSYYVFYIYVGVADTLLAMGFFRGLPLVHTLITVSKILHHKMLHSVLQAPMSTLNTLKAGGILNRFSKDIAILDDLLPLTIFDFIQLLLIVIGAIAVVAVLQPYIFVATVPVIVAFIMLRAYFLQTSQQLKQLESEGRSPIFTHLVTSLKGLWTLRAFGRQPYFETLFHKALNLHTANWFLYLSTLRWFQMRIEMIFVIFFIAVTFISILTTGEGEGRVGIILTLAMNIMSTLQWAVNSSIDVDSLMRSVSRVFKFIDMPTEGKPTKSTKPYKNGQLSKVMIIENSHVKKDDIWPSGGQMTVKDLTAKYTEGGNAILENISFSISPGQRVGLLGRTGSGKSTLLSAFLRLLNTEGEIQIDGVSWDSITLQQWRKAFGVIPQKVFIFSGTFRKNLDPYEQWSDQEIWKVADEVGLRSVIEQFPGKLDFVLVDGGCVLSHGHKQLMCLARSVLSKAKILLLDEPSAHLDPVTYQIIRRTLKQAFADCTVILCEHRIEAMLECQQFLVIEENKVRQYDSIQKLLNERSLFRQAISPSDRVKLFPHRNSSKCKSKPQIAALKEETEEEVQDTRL

| Ent. A Max Activity (CFTR; Table 8) | EC50 (CFTR; Table 8) | Ent. A Max Activity (CFTR; Table 9) | EC50 (CFTR; Table 9) | Structure (SMILES) | other results |
| --- | --- | --- | --- | --- | --- |
| +++ (+++ is >60%) | < 1000 nM |  |  | Cc1cccc(C)c1-c1cc2nc(n1)NS(=O)(=O)c1cccc(c1)C(=O)NCC(c1ccc(OCC3(C(F)(F)F)CC3)cc1)O2 (stereo not drawn) [Compound 33, 6-(2,6-Dimethylphenyl)-2,2-dioxo-10-[4-[[1-(trifluoromethyl)cyclopropyl]methoxy]phenyl]-9-oxa-2λ^6-thia-3,5,12,19-tetrazatricyclo[12.3.1.14,8]nonadeca-1(18),4(19),5,7,14,16-hexaen-13-one] | ring closure, yield after HPLC (from Cc1cccc(C)c1-c1cc(OC(CN)c2ccc(OCC3(C(F)(F)F)CC3)cc2)nc(NS(=O)(=O)c2cccc(C(=O)O)c2)n1, amide bond, 13-membered ring, HATU/DIEA, DMF, 48.7 mM, 25.0 °C, 72.0 h): 10% |
| +++ (+++ is >60%) | < 1000 nM |  |  | Cc1cccc(C)c1-c1cc2nc(n1)NS(=O)(=O)c1cccc(c1)C(=O)NCC(c1ccc(C(C)(C)C)cc1)O2 (stereo not drawn) [Compound 3, 10-(4-tert-butylphenyl)-6-(2,6-dimethylphenyl)-2,2-dioxo-9-oxa-2λ^6-thia-3,5,12,19-tetrazatricyclo[12.3.1.14,8]nonadeca-1(18),4(19),5,7,14,16-hexaen-13-one] | ring closure, yield after HPLC (from Cc1cccc(C)c1-c1cc(Cl)nc(NS(=O)(=O)c2cccc(C(=O)NCC(O)c3ccc(C(C)(C)C)cc3)c2)n1, snar bond, 13-membered ring, NaH, NMP, 8.5 mM, 90.0 °C, 2.5 h): 12% |
| +++ (+++ is >60%) | < 1000 nM |  |  | Cc1cccc(C)c1-c1cc2nc(n1)NS(=O)(=O)c1cccc(c1)C(=O)NCC(c1ccccc1Cl)O2 (stereo not drawn) [Compound 31, 10-(2-Chlorophenyl)-6-(2,6-dimethylphenyl)-2,2-dioxo-9-oxa-2λ^6-thia-3,5,12,19-tetrazatricyclo[12.3.1.14,8]nonadeca-1(18),4(19),5,7,14,16-hexaen-13-one] | ring closure, yield after HPLC (from Cc1cccc(C)c1-c1cc(OC(CN)c2ccccc2Cl)nc(NS(=O)(=O)c2cccc(C(=O)O)c2)n1, amide bond, 13-membered ring, HATU/DIEA, DMF, 42.4 mM, 25.0 °C, 1.0 h): 49% |
|  |  | ++ (++ is 30-60%) | < 1000 nM | Cc1cccc(C)c1-c1cc2nc(n1)NS(=O)(=O)c1cccc(c1)C(=O)N[C@H](C)[C@@H](c1ccc(C(F)(F)F)cc1)O2 [Compound 41, (10R,11R)-6-(2,6-Dimethylphenyl)-11-methyl-2,2-dioxo-10-[4-(trifluoromethyl)phenyl]-9-oxa-2λ^6-thia-3,5,12,19-tetrazatricyclo[12.3.1.14,8]nonadeca-1(18),4(19),5,7,14,16-hexaen-13-one] | ring closure, yield after HPLC (from Cc1cccc(C)c1-c1cc(O[C@H](c2ccc(C(F)(F)F)cc2)[C@@H](C)N)nc(NS(=O)(=O)c2cccc(C(=O)O)c2)n1, amide bond, 13-membered ring, HATU/NaOtBu, DMF/THF, 96.3 mM, 25.0 °C, 0.33 h, 2 steps): 10% |
| +++ (+++ is >60%) | < 1000 nM |  |  | Cc1cccc(C)c1-c1cc2nc(n1)NS(=O)(=O)c1cccc(c1)C(=O)NCC(c1cccc(Cl)c1)O2 (stereo not drawn) [Compound 32, 10-(3-Chlorophenyl)-6-(2,6-dimethylphenyl)-2,2-dioxo-9-oxa-2λ^6-thia-3,5,12,19-tetrazatricyclo[12.3.1.14,8]nonadeca-1(18),4(19),5,7,14,16-hexaen-13-one] | ring closure, yield after HPLC (from Cc1cccc(C)c1-c1cc(OC(CN)c2cccc(Cl)c2)nc(NS(=O)(=O)c2cccc(C(=O)O)c2)n1, amide bond, 13-membered ring, HATU/DIEA, DMF, 41.6 mM, 25.0 °C, 1.0 h): 27% |
|  |  | ++ (++ is 30-60%) | 1000 to 3000 nM | Cc1cccc(C)c1-c1cc2nc(n1)NS(=O)(=O)c1cccc(c1)C(=O)NCCC(c1ccc(C(C)(C)C)cc1)O2 (stereo not drawn) [Compound 55, 10-(4-tert-Butylphenyl)-6-(2,6-dimethylphenyl)-2,2-dioxo-9-oxa-2λ^6-thia-3,5,13,20-tetrazatricyclo[13.3.1.14,8]icosa-1(19),4(20),5,7,15,17-hexaen-14-one] | ring closure, yield after HPLC (from Cc1cccc(C)c1-c1cc(OC(CCN)c2ccc(C(C)(C)C)cc2)nc(NS(=O)(=O)c2cccc(C(=O)O)c2)n1, amide bond, 14-membered ring, HATU/TEA, DMF, 204.0 mM, 50.0 °C, 0.25 h): 18% |

More lines, now with the values behind:

| Structure (SMILES) | Ent. A Max Activity (CFTR; Table 8) | EC50 (CFTR; Table 8) | Ent. A Max Activity (CFTR; Table 9) | EC50 (CFTR; Table 9) | other results |
| --- | --- | --- | --- | --- | --- |
| Cc1cccc(C)c1-c1cc2nc(n1)NS(=O)(=O)c1cccc(c1)C(=O)NCC(C1CCOCC1)O2 (stereo not drawn) [Compound 34, 6-(2,6-Dimethylphenyl)-2,2-dioxo-10-tetrahydropyran-4-yl-9-oxa-2λ^6-thia-3,5,12,19-tetrazatricyclo[12.3.1.14,8]nonadeca-1(18),4(19),5,7,14,16-hexaen-13-one] | + (+ is <30%) |  |  |  | ring closure, yield after HPLC (from Cc1cccc(C)c1-c1cc(OC(CN)C2CCOCC2)nc(NS(=O)(=O)c2cccc(C(=O)O)c2)n1, amide bond, 13-membered ring, HATU/DIEA, DMF, 66.2 mM, 25.0 °C, 0.25 h): 25% |
| COC[C@H]1NC(=O)c2cccc(c2)S(=O)(=O)Nc2nc(cc(-c3c(C)cccc3C)n2)OC1c1ccc(C(C)(C)C)cc1 (single isomer, unassigned) [Compound 45] |  |  | +++ (+++ is >60%) | < 1000 nM | ring closure, yield after HPLC (from COC[C@@H](N)[C@H](Oc1cc(-c2c(C)cccc2C)nc(NS(=O)(=O)c2cccc(C(=O)O)c2)n1)c1ccc(C(C)(C)C)cc1, amide bond, 13-membered ring, HATU/DIEA, DMF, 161.6 mM, 25.0 °C, 0.5 h): 8%; ring closure, yield after HPLC [1]: 10% |
| Cc1cccc(C)c1-c1cc2nc(n1)NS(=O)(=O)c1cccc(c1)C(=O)N[C@H](CC1CC1)CO2 [Compound 114, (11R)-11-(Cyclopropylmethyl)-6-(2,6-dimethylphenyl)-9-oxa-2λ^6-thia-3,5,12,19-tetraazatricyclo[12.3.1.14,8]nonadeca-1(17),4(19),5,7,14(18),15-hexaene-2,2,13-trione] |  |  |  |  | ring closure, yield after HPLC (from Cc1cccc(C)c1-c1cc(OC[C@H](N)CC2CC2)nc(NS(=O)(=O)c2cccc(C(=O)O)c2)n1, amide bond, 13-membered ring, HATU/TEA, DMF, 18.8 mM, 17.0 h): 61%; Ent. A Max Activity (CFTR; Enteroid Assay A): +++ (+++ is >600%); EC50 (CFTR; Enteroid Assay A): < 1000 nM |
| COC[C@H]1NC(=O)c2cccc(c2)S(=O)(=O)Nc2nc(cc(-c3c(C)cccc3C)n2)O[C@@H]1c1ccc(C(C)(C)C)cc1 (single isomer, unassigned) [Compound 44] |  |  | +++ (+++ is >60%) | < 1000 nM | ring closure, yield after HPLC [1]: 8% |
| Cc1cccc(C)c1-c1cc2nc(n1)NS(=O)(=O)c1cccc(c1)C(=O)N[C@H](C)[C@H](c1ccc(C(F)(F)F)cc1)O2 [Compound 42, (10S,11R)-6-(2,6-dimethylphenyl)-11-methyl-2,2-dioxo-10-[4-(trifluoromethyl)phenyl]-9-oxa-2λ^6-thia-3,5,12,19-tetrazatricyclo[12.3.1.14,8]nonadeca-1(18),4(19),5,7,14,16-hexaen-13-one] |  |  | ++ (++ is 30-60%) | < 1000 nM | ring closure, yield after HPLC (from Cc1cccc(C)c1-c1cc(O[C@@H](c2ccc(C(F)(F)F)cc2)[C@@H](C)N)nc(NS(=O)(=O)c2cccc(C(=O)O)c2)n1, amide bond, 13-membered ring, HATU/NaOtBu, DMF/THF, 96.3 mM, 25.0 °C, 0.33 h, 2 steps): 4% |
| Cc1cccc(C)c1-c1cc2nc(n1)NS(=O)(=O)N1CCCC(C1)C(=O)N[C@H](CC1CCCCC1)CO2 (stereo partly drawn) [Compound 73, (11R)-11-(Cyclohexylmethyl)-6-(2,6-dimethylphenyl)-2,2-dioxo-9-oxa-2λ^6-thia-1,3,5,12,19-pentazatricyclo[12.3.1.14,8]nonadeca-4(19),5,7-trien-13-one] | + (+ is <30%) |  |  |  | ring closure, yield after HPLC (from Cc1cccc(C)c1-c1cc(OC[C@H](N)CC2CCCCC2)nc(NS(=O)(=O)N2CCCC(C(=O)O)C2)n1, amide bond, 13-membered ring, HATU/DIEA, DMF, 19.2 mM, 3.0 h): 19% |
| Cc1cccc(C)c1-c1cc2nc(n1)NS(=O)(=O)c1cccc(c1)C(=O)NCC(C(=O)NCCC(C)(C)C)O2 (stereo not drawn) [Compound 30, N-(3,3-Dimethylbutyl)-6-(2,6-dimethylphenyl)-2,2,13-trioxo-9-oxa-2λ^6-thia-3,5,12,19-tetrazatricyclo[12.3.1.14,8]nonadeca-1(18),4(19),5,7,14,16-hexaene-10-carboxamide] |  | 3000 to 30000 nM |  |  | ring closure, yield after HPLC (from Cc1cccc(C)c1-c1cc(OC(CN)C(=O)NCCC(C)(C)C)nc(NS(=O)(=O)c2cccc(C(=O)O)c2)n1, amide bond, 13-membered ring, HATU/DIEA, DMF, 30.2 mM, 25.0 °C, 0.25 h): 28% |
| Cc1cccc(C)c1-c1cc2nc(n1)NS(=O)(=O)c1cccc(c1)C(=O)N[C@@H](C)[C@@H](c1ccc(C(C)(C)C)cc1)O2 [Compound 43, (10R,11S)-10-(4-tert-butylphenyl)-6-(2,6-dimethylphenyl)-11-methyl-2,2-dioxo-9-oxa-2λ^6-thia-3,5,12,19-tetrazatricyclo[12.3.1.14,8]nonadeca-1(18),4(19),5,7,14,16-hexaen-13-one] |  |  | +++ (+++ is >60%) | < 1000 nM | ring closure, yield after HPLC (from Cc1cccc(C)c1-c1cc(O[C@H](c2ccc(C(C)(C)C)cc2)[C@H](C)N)nc(NS(=O)(=O)c2cccc(C(=O)O)c2)n1, amide bond, 13-membered ring, HATU/NaOtBu, DMF/THF, 53.4 mM, 25.0 °C, 0.1 h, 2 steps): 13% |
| Cc1cccc(C)c1-c1cc2nc(n1)NS(=O)(=O)C1CCC1C(=O)N[C@H](CC(C)C)CO2 (stereo partly drawn) |  |  |  |  | ring closure, yield after HPLC (from Cc1cccc(C)c1-c1cc(OC[C@H](N)CC(C)C)nc(NS(=O)(=O)C2CCC2C(=O)O)n1, amide bond, 12-membered ring, HATU/DIEA, DMF, 42.9 mM, 25.0 °C, 0.083 h, 2 steps): 4% and 8% |
| Cc1cccc(C)c1-c1nc2cc(n1)OC[C@@H](CC(C)C)NC(=O)c1cccc(c1)S(=O)(=O)N2 |  |  |  |  | ring closure, yield after HPLC (from Cc1cccc(C)c1-c1nc(NS(=O)(=O)c2cccc(C(=O)O)c2)cc(OC[C@H](N)CC(C)C)n1, amide bond, 13-membered ring, HATU/TEA, DMF, 12.2 mM, 25.0 °C, 0.083 h): 32% |

From patent publication US20230382924A1, “MODULATORS OF CYSTIC FIBROSIS TRANSMEMBRANE CONDUCTANCE REGULATOR” (VERTEX PHARMACEUTICALS INCORPORATED, priority 2020, published 2023)
